# Measured values as given in US20090054376A1, “BENZOFURAN DERIVATIVES WITH THERAPEUTIC ACTIVITIES” (Pharmos Corporation, priority 2005, published 2009).
# Legend:
# IL-1β = assay: Gene expression in LPS activated RAW 264.7 macrophages, IL-1β; type: cell-based, mouse; settings: RAW 264.7, 10 μM, LPS 1 μg/ml, RNA 3 hrs after activation, vs vehicle treated activated cells
# Method: (§1) RAW 264.7 macrophages, a mouse cell line (ATCC # TIB 71), were grown in Dulbecco's modified Eagle's medium (DMEM) with 4 mM L-glutamine adjusted to contain 1.5 g/L sodium bicarbonate, 4.5 g/L glucose, and 10% heat inactivated fetal bovine serum. Cells were grown in tissue culture flasks and seeded at appropriate density into 6 wells tissue culture plates. Four million Raw cells in half a milliliter were stimulated with 1 μg/ml LPS E. coli 055:B5 (DIFCO Laboratories). The mouse macrophages were pre-treated for one hour with controls or 10 μM of test compounds, and later on activated with LPS. RNA samples were extracted from the cells 3 hrs after activation and gene expression levels were analyzed by real-time RT-PCR. In parallel, supernatants were collected and secretion of inflammatory mediators was analyzed using ELISA techniques according to the instructions of the kit manufacturer.
# (§2) Total RNA is prepared using SV total RNA isolation system (Promega). The cells were homogenized in lysis buffer. The lysates were transferred to an RNA isolation column, treated with DNAse, washed and eluted according to kit instructions. RNA concentrations were determined using GeneQuant II (Pharmacia-Amersham). Complementary DNA (cDNA) was synthesized from total RNA using […] II reverse transcriptase (Life Technologies). 2 μg of total RNA were combined with an oligo (dT)15 primer, 0.5 mM dNTP mix, 8 units of reverse transcriptase and other reaction components up to a final volume of 20 μl, according to the kit instructions. The reaction mixture was incubated at 42° C. for 45 min and inactivated at 70° C. for 15 minutes. Quantitative real-time RT-PCR included 1 μl of the cDNA, 300 nM of the appropriate forward and reverse primers (according to the gene monitored) and 7.5 μl of the reaction mix containing buffer, nucleotides, Taq polymerase and SYBER green (SYBER Green master mix, Applied Biosystems), in a total reaction volume of 15 μl. Gene amplification was obtained using the GeneAmp 5700 sequence detection system (Applied Biosystems). Amplification included one stage of 10 minutes at 95° C. followed by 40 cycles of a 2-steps loop: 20 seconds at 95° C., and 1 minute at 60° C. During each annealing step, the amount of the amplified product was measured by the fluorescence of the double strand DNA binding dye, SYBER Green. The cycle of threshold (CT), representing the PCR cycle at which an increase in fluorescence above a baseline signal can be first detected, was determined for each product. A delay of one PCR cycle in the CT is translated into a two-fold decrease in starting template molecules and vice versa. The changes in the CT of the specific gene product were normalized to the changes in the CT of housekeeping cyclophilin or GAPDH as reference genes. Results were expressed as fold increase of gene expression in treated or untreated activated cells above the resting cells, after normalization to cyclophilin or GAPDH. Cells were also tested for viability to confirm that any effect on gene expression was indeed due to modulation of transcription of a specific target and not to cytoxicity.
# (§3) Results were further expressed as percent inhibition of gene expression in compound treated activated cells over vehicle “treated” activated cells. Since the modulation of IL-10 and TNF-α gene expression by the compounds of the invention is relatively minor, it is not reported. […] Inhibition above 50% was considered significant.
# COX-2 = assay: Gene expression in LPS activated RAW 264.7 macrophages, COX-2; type: cell-based, mouse; settings: RAW 264.7, 10 μM, LPS 1 μg/ml, RNA 3 hrs after activation, vs vehicle treated activated cells
# Method: as §1, §2, §3
# MCP-1 = assay: Gene expression in LPS activated RAW 264.7 macrophages, MCP-1; type: cell-based, mouse; settings: RAW 264.7, 10 μM, LPS 1 μg/ml, RNA 3 hrs after activation, vs vehicle treated activated cells
# Method: as §1, §2, §3
# iNOS = assay: Gene expression in LPS activated RAW 264.7 macrophages, iNOS; type: cell-based, mouse; settings: RAW 264.7, 10 μM, LPS 1 μg/ml, RNA 3 hrs after activation, vs vehicle treated activated cells
# Method: as §1, §2, §3
# IL-6 = assay: Cytokine secretion into blood circulation in LPS injected mice, IL-6; type: in vivo, Balb/C female mice; settings: 2 mg/kg i.v., LPS 3 mg/kg i.p., plasma 90 minutes after LPS
# Method: (§4) Balb/C female mice (average body weight 20 g, Harlan, Israel) were injected i.v. at a volume dosage of 5 ml/kg with either vehicle or test compounds at a dose of 2 mg/kg. Each treatment group comprised at least 9 animals. Immediately after compound or control administration, the mice were injected i.p. with 3 mg/kg LPS (E. coli 055:B5, Calbiochem). Ninety minutes after LPS induction, blood samples were collected into heparanized test tubes. Plasma was separated by centrifugation (10,000 rpm for 5 minutes at RT) and stored at −20° C. until assayed. The level of the inflammatory mediator under study, IL-1β, IL-6, IL-10 or TNF-α, was assayed by ELISA techniques.
# (§5) The technique used to quantify the amount of a given protein in a liquid sample, either tissue culture supernatant or body fluid, is based on Enzyme Linked ImmunoSorbent Assay (ELISA) methodology. Either commercially available or established in house, the assay is based on the capture of the protein of interest by specific antibodies bound to the bottom of an ELISA plate well. Unbound material is washed away, the captured protein is then exposed to a secondary antibody generally labeled with horseradish peroxidase (HRP) or alkaline phosphatase (ALP). Again the unbound material is washed away, and the samples are then incubated with the appropriate substrate yielding a colorimetric reaction. The reaction is stopped and reading is performed in a spectrophotometer at the appropriate wavelength. Samples are tested at least in duplicate and the appropriate standard curve, consisting of serial dilutions of the recombinant target protein, is incorporated on each plate. The concentration of the protein in the sample is calculated from the standard curve.
# (§6) The results are expressed as percent inhibition of secretion, taking into account the maximal cytokine concentration in vehicle “treated” animals and the baseline level in naïve animals. […] Inhibition above 50% was considered highly significant.
# TNF-α = assay: Cytokine secretion into blood circulation in LPS injected mice, TNF-α; type: in vivo, Balb/C female mice; settings: 2 mg/kg i.v., LPS 3 mg/kg i.p., plasma 90 minutes after LPS
# Method: as §4, §5, §6
# IL-10 = assay: Cytokine secretion into blood circulation in LPS injected mice, IL-10; type: in vivo, Balb/C female mice; settings: 2 mg/kg i.v., LPS 3 mg/kg i.p., plasma 90 minutes after LPS
# Method: as §4, §5, §6
SMILES,"Percent inhibition of gene expression, IL-1β (IL-1β)","Percent inhibition of gene expression, COX-2 (COX-2)","Percent inhibition of gene expression, MCP-1 (MCP-1)","Percent inhibition of gene expression, iNOS (iNOS)","Inhibition of cytokine secretion into blood circulation, IL-6 (IL-6)","Inhibition of cytokine secretion into blood circulation, TNF-α (TNF-α)","Inhibition of cytokine secretion into blood circulation, IL-10 (IL-10) [%]"
"CCCCCCC(C)(C)c1cc(O)c2c(c1)OC1C(O)CCCCC21 (stereo not drawn) [Compound C7S-2, 2-(1,1-dimethylheptyl)-5,6,7,8,9,9a-hexahydro-4bH-10-oxa-benzo[α]azulen-4,9-diol]","NO (NO indicates that the compound tested did not significantly affect the transcription of the gene assessed and that its activity is comparable to vehicle, within ±20% from this control)",26%,"NO (NO indicates that the compound tested did not significantly affect the transcription of the gene assessed and that its activity is comparable to vehicle, within ±20% from this control)","NO (NO indicates that the compound tested did not significantly affect the transcription of the gene assessed and that its activity is comparable to vehicle, within ±20% from this control)",–,–,–
"CCCCC(C)(C)c1cc(O)c2c(c1)OC1CCCCC21 (stereo not drawn) [Compound C6S-3, 3-(1,1-dimethylpentyl)-5a,6,7,8,9,9a-hexahydro-dibenzofuran-1-ol]",74%,65%,55%,68%,"NO (NO indicates that the compound tested did not significantly affect the level of cytokine in plasma of LPS injected mice and that its activity is comparable to vehicle, within ±20% from this control)",78%,79
"CCCCCCC(C)(C)c1cc(O)c2c(c1)OC1C=CCCC21 (stereo not drawn) [Compound C6S-2, 3-(1,1-Dimethylheptyl)-5a,8,9,9a-tetrahydro-dibenzofuran-1-ol]",58%,61%,44%,23%,"NO (NO indicates that the compound tested did not significantly affect the level of cytokine in plasma of LPS injected mice and that its activity is comparable to vehicle, within ±20% from this control)","NO (NO indicates that the compound tested did not significantly affect the level of cytokine in plasma of LPS injected mice and that its activity is comparable to vehicle, within ±20% from this control)",68
"CCCCCCC(C)(C)c1cc(O)c2c(c1)OC1(C)CCCC21 (stereo not drawn) [Compound C5S-2, 6-(1,1-dimethylheptyl)-8a-methyl-2,3,3a,8a-tetrahydro-1H-8-oxa-cyclo-penta[α]inden-4-ol]",81%,"NO (NO indicates that the compound tested did not significantly affect the transcription of the gene assessed and that its activity is comparable to vehicle, within ±20% from this control)","NO (NO indicates that the compound tested did not significantly affect the transcription of the gene assessed and that its activity is comparable to vehicle, within ±20% from this control)","NO (NO indicates that the compound tested did not significantly affect the transcription of the gene assessed and that its activity is comparable to vehicle, within ±20% from this control)","NO (NO indicates that the compound tested did not significantly affect the level of cytokine in plasma of LPS injected mice and that its activity is comparable to vehicle, within ±20% from this control)",38%,64
"CCCCCCC(C)(C)c1cc(O)c2c3c(oc2c1)C(=O)CCC3(C)C [Compound C6M-9, 7-(1,1-Dimethylheptyl)-9-hydroxy-1,1-dimethyl-2,3-dihydro-1H-dibenzofuran-4-one]","NO (NO indicates that the compound tested did not significantly affect the transcription of the gene assessed and that its activity is comparable to vehicle, within ±20% from this control)",50%,37%,32%,–,–,–
"CCCCC(C)(C)c1cc(O)c2c(c1)OC1(C)CCCC21 (stereo not drawn) [Compound C5S-1, 6-(1,1-dimethylpentyl)-8a-methyl-2,3,3a,8a-tetrahydro-1H-8-oxa-cyclopenta[α]inden-4-ol]",47%,29%,"NO (NO indicates that the compound tested did not significantly affect the transcription of the gene assessed and that its activity is comparable to vehicle, within ±20% from this control)",37%,28%,77%,75
